The text below walks through data of patent publication US12540141B2, “Spiropyrrolidine derived antiviral agents” (priority 2020, dated 2026).

Where only a bound is given, the exact number is not on record here.

This assay deals with SARS-CoV-2 3CL-protease (Severe acute respiratory syndrome coronavirus 2, UniProt P0DTD1). As to the kind of experiment: SARS-CoV-2 3C-Like (3CL) Protease Fluorescence Assay (FRET). It counts as biochemical. The note with it: SARS-CoV-2 3CL-protease 10 nM, 30 min preincubation at RT, substrate 40 μM.

Usually IC50 stands for the concentration that inhibits the measured activity by half. A low value points to greater potency. `CCCOC[C@H](NC(=O)c1cc2c(OC)cccc2[nH]1)C(=O)N1C[C@]2(C[C@H]1C#N)C(=O)Nc1ccccc12` [Example 126] showed an IC50 of under 100 nM. As to `C#CCOC[C@H](NC(=O)c1cc2c(OC)cccc2[nH]1)C(=O)N1C[C@]2(C[C@H]1C#N)C(=O)Nc1ccccc12` [Example 127], the concentration for half-maximal inhibition (IC50) was under 100 nM.

The molecule `CC(C)(C)OC(=O)NC[C@H](NC(=O)c1cc2c(F)cc(F)cc2[nH]1)C(=O)N1C[C@]2(C[C@H]1C#N)C(=O)Nc1ccccc12` [Example 128] returned an IC50 of over 1000 nM.

Molecule `N#C[C@@H]1C[C@@]2(CN1C(=O)[C@H](COCc1cnn[nH]1)NC(=O)c1cc3c(F)cc(F)cc3[nH]1)C(=O)Nc1ccccc12` [Example 129] registered an IC50 of over 1000 nM. Molecule `C[C@@H](CC(=O)N[C@@H](CC(C)(C)C)C(=O)N1C[C@]2(C[C@H]1C#N)C(=O)Nc1ccccc12)NC(=O)OCc1ccccc1` [Example 130] registered an IC50 of 100 to 1000 nM. Under `CCCC[C@H](NC(=O)c1cnn(C(C)(C)C)c1)C(=O)N1C[C@]2(C[C@H]1C#N)C(=O)Nc1ccccc12` [Example 131] stands under 100 nM; under `CC(C)(C)n1cc(C(=O)N[C@@H](CC2CC2)C(=O)N2C[C@]3(C[C@H]2C#N)C(=O)Nc2ccccc23)cn1` [Example 132], under 100 nM; under `CC(C)(C)C[C@H](NC(=O)c1cnn(C(C)(C)C)c1)C(=O)N1C[C@]2(C[C@H]1C#N)C(=O)Nc1ccccc12` [Example 133], under 100 nM. Under `CC(C)(C)C[C@H](NC(=O)c1ccc2ncc(C(F)(F)F)cc2c1)C(=O)N1C[C@]2(C[C@H]1C#N)C(=O)Nc1ccccc12` [Example 134] stands 100 to 1000 nM.

Consider `Cc1cnc2ccc(C(=O)N[C@@H](CC(C)(C)C)C(=O)N3C[C@]4(C[C@H]3C#N)C(=O)Nc3ccccc34)cc2c1` [Example 135], for which the IC50 was under 100 nM.

In turn, `CC(C)(C)C[C@H](NC(=O)c1ccc2ncc(C3CC3)cc2c1)C(=O)N1C[C@]2(C[C@H]1C#N)C(=O)Nc1ccccc12` [Example 136] displayed a concentration for half-maximal inhibition (IC50) of under 100 nM. Under `CC(C)(C)C[C@H](NC(=O)c1cc(OC(F)(F)F)c2ncccc2c1)C(=O)N1C[C@]2(C[C@H]1C#N)C(=O)Nc1ccccc12` [Example 137] stands under 100 nM; under `CC(C)(C)C[C@H](NC(=O)c1cc(Cl)c2ncccc2c1)C(=O)N1C[C@]2(C[C@H]1C#N)C(=O)Nc1ccccc12` [Example 138], under 100 nM. Under `CC(C)(C)C[C@H](NC(=O)c1cc(OC(F)F)c2ncccc2c1)C(=O)N1C[C@]2(C[C@H]1C#N)C(=O)Nc1ccccc12` [Example 139] stands under 100 nM.

For the molecule `CC(C)(C)C[C@H](NC(=O)c1cn(-c2ccc(Cl)cc2)nn1)C(=O)N1C[C@]2(C[C@H]1C#N)C(=O)Nc1ccccc12` [Example 140], the IC50 fell in the range of 100 to 1000 nM. Under `CC(C)(C)C[C@H](NC(=O)c1cn(C2CC2)nn1)C(=O)N1C[C@]2(C[C@H]1C#N)C(=O)Nc1ccccc12` [Example 141] stands under 100 nM; under `CC(C)(C)C[C@H](NC(=O)c1cn(-c2cccc(Cl)c2)nn1)C(=O)N1C[C@]2(C[C@H]1C#N)C(=O)Nc1ccccc12` [Example 142], 100 to 1000 nM.

The molecule `CC(C)(C)C[C@H](NC(=O)c1cn(CC(F)(F)F)nn1)C(=O)N1C[C@]2(C[C@H]1C#N)C(=O)Nc1ccccc12` [Example 143] showed an IC50 of under 100 nM. `CC(C)(C)C[C@H](NC(=O)c1cnn(CC(F)(F)F)c1)C(=O)N1C[C@]2(C[C@H]1C#N)C(=O)Nc1ccccc12` [Example 144] gave an IC50 of under 100 nM. To `CC(C)(C)C[C@H](NC(=O)c1cnn(-c2ccc(C(F)(F)F)cc2)c1)C(=O)N1C[C@]2(C[C@H]1C#N)C(=O)Nc1ccccc12` [Example 145] belongs under 100 nM. To `Cc1cc2cc(C(=O)N[C@@H](CC(C)(C)C)C(=O)N3C[C@]4(C[C@H]3C#N)C(=O)Nc3ccccc34)cc(Cl)c2nc1C` [Example 147] belongs under 100 nM; to `CC(C)(C)C[C@H](NC(=O)c1cn(C2CCC2)nn1)C(=O)N1C[C@]2(C[C@H]1C#N)C(=O)Nc1ccccc12` [Example 148], under 100 nM.

In turn, `CC(C)C[C@@H](C(=O)N1C[C@]2(C[C@H]1C=O)C(=O)Nc1ccccc12)N(C)C(=O)c1cc2c(F)cc(F)cc2[nH]1` [Example 149] had an IC50 of under 100 nM. `CC(C)C[C@@H](C(=O)N1C[C@]2(C[C@H]1C=O)C(=O)Nc1ccccc12)N(C)C(=O)c1cc2c(F)cc(F)c(F)c2[nH]1` [Example 150]: the 50% inhibitory concentration (IC50) was under 100 nM. Under `CC(C)C[C@H](NC(=O)c1ccc(-c2ccccc2)[nH]1)C(=O)N1C[C@]2(C[C@H]1C#N)C(=O)Nc1ccccc12` [Example 151] stands over 1000 nM. To `CC(C)C[C@@H](C(=O)N1C[C@]2(C[C@H]1C(O)S(=O)(=O)O)C(=O)Nc1ccccc12)N(C)C(=O)c1cc2c(F)cc(F)cc2[nH]1` (stereo partly shown) [Example 153] belongs under 100 nM; to `CC(C)C[C@@H](C(=O)N1C[C@]2(C[C@H]1C(O)S(=O)(=O)O)C(=O)Nc1ccccc12)N(C)C(=O)c1cc2c(F)cc(F)c(F)c2[nH]1` (stereo partly shown) [Example 154], under 100 nM; to `CC(C)C[C@@H](C(=O)N1C[C@]2(C[C@H]1C(=O)C(=O)NC1CCCCC1)C(=O)Nc1ccccc12)N(C)C(=O)c1cc2c(F)cc(F)cc2[nH]1` [Example 155], over 1000 nM. On to `CC(C)C[C@@H](C(=O)N1C[C@]2(C[C@H]1C(=O)CO)C(=O)Nc1ccccc12)N(C)C(=O)c1cc2c(F)cc(F)cc2[nH]1` [Example 157], for which the IC50 is over 1000 nM.

With `CC(C)C[C@@H](C(=O)N1C[C@]2(C[C@H]1C(=O)CO)C(=O)Nc1ccccc12)N(C)C(=O)c1cc2c(F)cc(F)c(F)c2[nH]1` [Example 158], the IC50 was over 1000 nM. Under `CC(C)C[C@@H](C(=O)N1C[C@]2(C[C@H]1C(=O)CCl)C(=O)Nc1ccccc12)N(C)C(=O)c1cc2c(F)cc(F)c(F)c2[nH]1` [Example 159] stands over 1000 nM. Under `CC(C)C[C@@H](C(=O)N1C[C@]2(C[C@H]1C#N)C(=O)Nc1ccccc12)N(C(=O)OCc1ccccc1)C(C)C` [Example 160] stands over 1000 nM; under `CC(C)N(C(=O)OC(C)(C)C)[C@@H](Cc1ccccc1)C(=O)N1C[C@]2(C[C@H]1C#N)C(=O)Nc1ccccc12` [Example 161], over 1000 nM. To `CC(C)C[C@@H](C(=O)N1C[C@]2(C[C@H]1C#N)C(=O)Nc1ccccc12)N(C)C(=O)c1ccccc1Cl` [Example 162] belongs under 100 nM; to `CC(C)C[C@@H](C(=O)N1C[C@]2(C[C@H]1C#N)C(=O)Nc1ccccc12)N(C)C(=O)c1ccc(Cl)cc1` [Example 163], 100 to 1000 nM. In the case of `CC(C)C[C@@H](C(=O)N1C[C@]2(C[C@H]1C#N)C(=O)Nc1ccccc12)N(C)C(=O)c1cccc(F)c1Cl` [Example 164], the IC50 is under 100 nM. Under `CC(C)C[C@@H](C(=O)N1C[C@]2(C[C@H]1C#N)C(=O)Nc1ccccc12)N(C)C(=O)c1ccc(C#N)c(Cl)c1` [Example 165] stands 100 to 1000 nM; under `CC(C)C[C@@H](C(=O)N1C[C@]2(C[C@H]1C#N)C(=O)Nc1ccccc12)N(C)C(=O)c1ccc(Cl)c(Cl)c1` [Example 166], under 100 nM; under `CC(C)C[C@@H](C(=O)N1C[C@]2(C[C@H]1C#N)C(=O)Nc1ccccc12)N(C)C(=O)c1cccc(Cl)c1` [Example 167], under 100 nM. To `CC(C)C[C@@H](C(=O)N1C[C@]2(C[C@H]1C#N)C(=O)Nc1ccccc12)N(C)C(=O)c1ccc(Cl)cc1Cl` [Example 168] belongs under 100 nM; to `CC(C)C[C@@H](C(=O)N1C[C@]2(C[C@H]1C#N)C(=O)Nc1ccccc12)N(C)C(=O)c1c(Cl)ccc(Cl)c1F` [Example 169], under 100 nM; to `COc1ccc(Cl)cc1C(=O)N(C)[C@@H](CC(C)C)C(=O)N1C[C@]2(C[C@H]1C#N)C(=O)Nc1ccccc12` [Example 170], under 100 nM. Under `CC(C)C[C@@H](C(=O)N1C[C@]2(C[C@H]1C#N)C(=O)Nc1ccccc12)N(C)C(=O)c1cc(Cl)c(F)cc1F` [Example 171] stands under 100 nM; under `CC(C)C[C@@H](C(=O)N1C[C@]2(C[C@H]1C#N)C(=O)Nc1ccccc12)N(C)C(=O)c1cc(Cl)cc(Cl)c1` [Example 172], under 100 nM; under `CC(C)C[C@@H](C(=O)N1C[C@]2(C[C@H]1C#N)C(=O)Nc1ccccc12)N(C)C(=O)c1cc(F)cc(Cl)c1` [Example 173], under 100 nM.

`CC(C)C[C@@H](C(=O)N1C[C@]2(C[C@H]1C#N)C(=O)Nc1ccccc12)N(C)C(=O)c1ccc(Cl)c(C(F)(F)F)c1` [Example 174] came in with a half-maximal inhibitory concentration (IC50) of under 100 nM. Turning to `CC(C)C[C@@H](C(=O)N1C[C@]2(C[C@H]1C#N)C(=O)Nc1ccccc12)N(C)C(=O)c1ccc(Cl)c(F)c1F` [Example 175], the IC50 is under 100 nM. The molecule `CC(C)C[C@@H](C(=O)N1C[C@]2(C[C@H]1C#N)C(=O)Nc1ccccc12)N(C)C(=O)c1ccc(F)c(C(F)(F)F)c1` [Example 177] gave a half-maximal inhibitory concentration (IC50) of under 100 nM. Under `CC(C)C[C@@H](C(=O)N1C[C@]2(C[C@H]1C#N)C(=O)Nc1ccccc12)N(C)C(=O)c1ccc(F)c(F)c1` [Example 178] stands under 100 nM; under `CC(C)C[C@@H](C(=O)N1C[C@]2(C[C@H]1C#N)C(=O)Nc1ccccc12)N(C)C(=O)c1ccc(OC(F)(F)F)c(F)c1` [Example 179], under 100 nM.

In the case of `COc1ccc(C(=O)N(C)[C@@H](CC(C)C)C(=O)N2C[C@]3(C[C@H]2C#N)C(=O)Nc2ccccc23)cc1C(F)(F)F` [Example 181], the half-maximal inhibitory concentration (IC50) is under 100 nM. Under `COc1ccc(C(=O)N(C)[C@@H](CC(C)C)C(=O)N2C[C@]3(C[C@H]2C#N)C(=O)Nc2ccccc23)cc1F` [Example 182] stands under 100 nM.

Turning to `CC(C)C[C@@H](C(=O)N1C[C@]2(C[C@H]1C#N)C(=O)Nc1ccccc12)N(C)C(=O)c1c(Cl)cc(Cl)cc1Cl` [Example 185], the IC50 was under 100 nM. Under `CC(C)C[C@@H](C(=O)N1C[C@]2(C[C@H]1C#N)C(=O)Nc1ccccc12)N(C)C(=O)c1c(Cl)cc(F)cc1Cl` [Example 186] stands under 100 nM; under `CC(C)C[C@@H](C(=O)N1C[C@]2(C[C@H]1C#N)C(=O)Nc1ccccc12)N(C)C(=O)c1cc(Cl)cc(C#N)c1` [Example 187], under 100 nM.
